Reference: PubChem BioAssay (NCI)
“And” between values parts separate entries of the source, which are not always exact repeats. Equal entries are not always repeated.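 Five compound concentrations were applied to cells in 96-well plates for 48 hours; endpoints were derived by simple linear interpolation of the resulting dose-response curve. At the GI50, growth is halved. TGI denotes the concentration required for complete inhibition of growth.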

How the values were obtained:
Test in all cases: NCI-60 cell line screen, 48 h
T-47D breast = test system: T-47D breast
HCT-116 colon = test system: HCT-116 colon
SK-OV-3 ovarian = test system: SK-OV-3 ovarian
OVCAR-4 ovarian = test system: OVCAR-4 ovarian
TK-10 renal = test system: TK-10 renal
KM12 colon = test system: KM12 colon
SNB-19 CNS = test system: SNB-19 CNS
NCI-H226 lung = test system: NCI-H226 lung
SK-MEL-5 melanoma = test system: SK-MEL-5 melanoma
NCI-H460 lung = test system: NCI-H460 lung
A498 renal = test system: A498 renal
UO-31 renal = test system: UO-31 renal
SR leukemia = test system: SR leukemia
NCI-H522 lung = test system: NCI-H522 lung
IGROV1 ovarian = test system: IGROV1 ovarian
PC-3 prostate = test system: PC-3 prostate
SF-539 CNS = test system: SF-539 CNS
SF-295 CNS = test system: SF-295 CNS
OVCAR-3 ovarian = test system: OVCAR-3 ovarian
A549 NSCLC = test system: A549 NSCLC
SNB-75 CNS = test system: SNB-75 CNS
SK-MEL-28 melanoma = test system: SK-MEL-28 melanoma
CCRF-CEM leukemia = test system: CCRF-CEM leukemia
SN12C renal = test system: SN12C renal
MDA-MB-435 = test system: MDA-MB-435
HS 578T breast = test system: HS 578T breast
MDA-MB-231 breast = test system: MDA-MB-231 breast
HCC-2998 colon = test system: HCC-2998 colon
LOX IMVI melanoma = test system: LOX IMVI melanoma
HL-60(TB) leukemia = test system: HL-60(TB) leukemia
HCT-15 colon = test system: HCT-15 colon
NCI-H23 lung = test system: NCI-H23 lung
RXF 393 renal = test system: RXF 393 renal
CAKI-1 renal = test system: CAKI-1 renal
MALME-3M melanoma = test system: MALME-3M melanoma
MCF7 breast = test system: MCF7 breast
U251 CNS = test system: U251 CNS
SW-620 colon = test system: SW-620 colon
UACC-62 melanoma = test system: UACC-62 melanoma
OVCAR-8 ovarian = test system: OVCAR-8 ovarian
K-562 leukemia = test system: K-562 leukemia
OVCAR-5 ovarian = test system: OVCAR-5 ovarian
COLO 205 colon = test system: COLO 205 colon
M14 melanoma = test system: M14 melanoma
BT-549 breast = test system: BT-549 breast
DU-145 prostate = test system: DU-145 prostate
HOP-62 NSCLC = test system: HOP-62 NSCLC
EKVX NSCLC = test system: EKVX NSCLC
SK-MEL-2 melanoma = test system: SK-MEL-2 melanoma
HT29 colon = test system: HT29 colon
NCI/ADR-RES ovarian = test system: NCI/ADR-RES ovarian
SF-268 CNS = test system: SF-268 CNS
ACHN renal = test system: ACHN renal
786-0 renal = test system: 786-0 renal
HOP-92 NSCLC = test system: HOP-92 NSCLC
MOLT-4 leukemia = test system: MOLT-4 leukemia
UACC-257 melanoma = test system: UACC-257 melanoma
RPMI-8226 leukemia = test system: RPMI-8226 leukemia

C[C@@H]1C[C@H]2C(=O)OCC(NC(=O)[C@H](Cc3cc(F)cc(F)c3)NC(=O)Nc3ccc(Cl)cc3F)C(=O)N3CCC[C@H]3C(=O)N3CCCC[C@H]3C(=O)N[C@@H](C)C(=O)N2C1 (some centres undefined)
GI50 (T-47D breast): 1.73 µM and 0.549 µM | TGI (T-47D breast): 50 µM and 30.7 µM | GI50 (HCT-116 colon): 1.96 µM and 0.355 µM | TGI (HCT-116 colon): 7.37 µM and 2.04 µM | GI50 (SK-OV-3 ovarian): 2.14 µM and 1.51 µM | TGI (SK-OV-3 ovarian): 35.6 µM and 17.1 µM | GI50 (OVCAR-4 ovarian): 1.66 µM and 0.482 µM | TGI (OVCAR-4 ovarian): 50 µM and > 100 µM | GI50 (TK-10 renal): 3.04 µM and 1.49 µM | TGI (TK-10 renal): 50 µM and 33.8 µM | GI50 (KM12 colon): 3.33 µM and 2.5 µM | TGI (KM12 colon): 27.1 µM and 19.7 µM | GI50 (SNB-19 CNS): 2 µM and 0.46 µM | TGI (SNB-19 CNS): 50 µM and > 100 µM | GI50 (NCI-H226 lung): 2.08 µM and 0.312 µM | GI50 (SK-MEL-5 melanoma): 1.82 µM and 0.566 µM | TGI (SK-MEL-5 melanoma): 7.37 µM and 4.56 µM | GI50 (NCI-H460 lung): 1.88 µM and 0.516 µM | TGI (NCI-H460 lung): 50 µM and 17.3 µM | GI50 (A498 renal): 2.47 µM | TGI (A498 renal): 28.5 µM and 19.2 µM | GI50 (UO-31 renal): 2.12 µM and 2.03 µM | TGI (UO-31 renal): 50 µM and 65.8 µM | GI50 (SR leukemia): 0.964 µM and 1.37 µM | TGI (SR leukemia): 6.9 µM and 14.4 µM | GI50 (NCI-H522 lung): 1.44 µM and 0.38 µM | TGI (NCI-H522 lung): 8.78 µM and 5.8 µM | GI50 (IGROV1 ovarian): 4.56 µM and 1.6 µM | TGI (IGROV1 ovarian): 50 µM and 81.6 µM | GI50 (PC-3 prostate): 1.7 µM and 0.373 µM | TGI (PC-3 prostate): 29.4 µM and 19 µM | GI50 (SF-539 CNS): 2.63 µM and 1.27 µM | TGI (SF-539 CNS): 10.5 µM and 15.4 µM | GI50 (SF-295 CNS): 1.87 µM and 0.411 µM | TGI (SF-295 CNS): 11.8 µM and 7.71 µM | GI50 (OVCAR-3 ovarian): 2.23 µM and 0.55 µM | TGI (OVCAR-3 ovarian): 50 µM and 11.4 µM | GI50 (A549 NSCLC): 1.96 µM and 0.916 µM | TGI (A549 NSCLC): 50 µM and > 100 µM | GI50 (SNB-75 CNS): 2.29 µM and 0.365 µM | TGI (SNB-75 CNS): 50 µM and 16.9 µM | GI50 (SK-MEL-28 melanoma): 3.04 µM and 1.37 µM | TGI (SK-MEL-28 melanoma): 12.5 µM and 16.4 µM | GI50 (CCRF-CEM leukemia): 2.18 µM and 0.51 µM | TGI (CCRF-CEM leukemia): 47.2 µM and 19 µM | GI50 (SN12C renal): 1.68 µM and 0.444 µM | TGI (SN12C renal): 50 µM and 82.4 µM | GI50 (MDA-MB-435): 2.25 µM and 0.495 µM | TGI (MDA-MB-435): 13.2 µM and 12.3 µM | GI50 (HS 578T breast): 1.74 µM and 0.603 µM | TGI (HS 578T breast): 50 µM and 18.6 µM | GI50 (MDA-MB-231 breast): 1.65 µM and 0.484 µM | TGI (MDA-MB-231 breast): 5.9 µM and 4.24 µM | GI50 (HCC-2998 colon): 2.74 µM and 0.619 µM | TGI (HCC-2998 colon): 11.2 µM and 4.46 µM | GI50 (LOX IMVI melanoma): 0.898 µM and 0.776 µM | GI50 (HL-60(TB) leukemia): 1.73 µM and 0.287 µM | TGI (HL-60(TB) leukemia): 8.21 µM and 1.53 µM | GI50 (HCT-15 colon): 1.96 µM and 0.468 µM | TGI (HCT-15 colon): 37.3 µM and 10.4 µM | GI50 (NCI-H23 lung): 2.79 µM | TGI (NCI-H23 lung): 50 µM | GI50 (RXF 393 renal): 2.89 µM and 1.69 µM | TGI (RXF 393 renal): 13.4 µM and 11.5 µM | GI50 (CAKI-1 renal): 1.9 µM and 0.4 µM | TGI (CAKI-1 renal): 50 µM and 15.6 µM | GI50 (MALME-3M melanoma): 3.1 µM and 1.64 µM | TGI (MALME-3M melanoma): 16.7 µM and 16.3 µM | GI50 (MCF7 breast): 1.89 µM and 0.39 µM | TGI (MCF7 breast): 50 µM and 20 µM | GI50 (U251 CNS): 2.2 µM and 0.514 µM | TGI (U251 CNS): 50 µM and 28.8 µM | GI50 (SW-620 colon): 3.37 µM and 0.801 µM | TGI (SW-620 colon): 50 µM and > 100 µM | GI50 (UACC-62 melanoma): 2.3 µM and 0.644 µM | TGI (UACC-62 melanoma): 12.4 µM and 14.9 µM | GI50 (OVCAR-8 ovarian): 1.79 µM and 0.408 µM | TGI (OVCAR-8 ovarian): 50 µM and > 100 µM | GI50 (K-562 leukemia): 0.399 µM | TGI (K-562 leukemia): > 100 µM | GI50 (OVCAR-5 ovarian): 2.34 µM and 0.751 µM | TGI (OVCAR-5 ovarian): 10.9 µM and 16.5 µM | GI50 (COLO 205 colon): 1.27 µM and 0.402 µM | TGI (COLO 205 colon): 3.64 µM and 1.39 µM | GI50 (M14 melanoma): 2.05 µM and 0.448 µM | TGI (M14 melanoma): 9.05 µM and 10.3 µM | GI50 (BT-549 breast): 1.91 µM and 0.499 µM | TGI (BT-549 breast): 8.74 µM and 6.72 µM | GI50 (DU-145 prostate): 2.1 µM and 0.511 µM | TGI (DU-145 prostate): 50 µM and > 100 µM | GI50 (HOP-62 NSCLC): 2.03 µM and 1.07 µM | TGI (HOP-62 NSCLC): 50 µM and 35.8 µM | GI50 (EKVX NSCLC): 2.16 µM and 0.643 µM | TGI (EKVX NSCLC): 50 µM and 97.1 µM | GI50 (SK-MEL-2 melanoma): 1.81 µM and 0.337 µM | TGI (SK-MEL-2 melanoma): 8.07 µM and 3.28 µM | GI50 (HT29 colon): 1.91 µM and 0.595 µM | TGI (HT29 colon): 8.68 µM and 3.37 µM | GI50 (NCI/ADR-RES ovarian): 7.72 µM and 2.87 µM | TGI (NCI/ADR-RES ovarian): 50 µM and > 100 µM | GI50 (SF-268 CNS): 3.15 µM and 0.645 µM | TGI (SF-268 CNS): 50 µM and 51.9 µM | GI50 (ACHN renal): 2.22 µM and 1.14 µM | TGI (ACHN renal): 50 µM and > 100 µM | GI50 (786-0 renal): 3.06 µM and 1.18 µM | TGI (786-0 renal): 50 µM and 55.5 µM | GI50 (HOP-92 NSCLC): 1.41 µM and 0.399 µM | TGI (HOP-92 NSCLC): 8.43 µM and 7.29 µM | GI50 (MOLT-4 leukemia): 0.437 µM and 0.793 µM | TGI (MOLT-4 leukemia): 5.12 µM and 17.9 µM | GI50 (UACC-257 melanoma): 1.45 µM and 0.449 µM | TGI (UACC-257 melanoma): 6.43 µM and 7.05 µM | GI50 (RPMI-8226 leukemia): 1.19 µM and 0.333 µM | TGI (RPMI-8226 leukemia): 7.42 µM and 1.72 µM
